Data as given in patent US20060057657A1, “Stem cell selection and differentiation” (Oregon Health & Science University Technology & Research …, priority 2002, published 2006).

Assays:
Format in all cases: cell-based, mouse
[1] = system: ES cells; assay: ES cell proliferation rate / doubling time under treatment
Experimental: If grown in galactose as the sole carbon source, a sub-population of cells need to engage in active oxidative phosphorylation to convert galactose to glucose. In one embodiment, ES cells are selected in galactose-containing culture medium for an incubation period of about four days.
(§1) In order to establish the relationship between ES cell JC-1 fluorescence, respiration and differentiation permissiveness, cells may be grown under hypoxic (<2% oxygen) or normnoxic conditions and assayed for JC-1 red/green ratio, oxygen consumption and lactate secretion, proliferation rate, ES cell self-renewal (STAT3 activity), and differentiation permissiveness by chimeric assays. ES cells with high mitochondrial membrane potential (as shown by high JC-1 red/green ratio) display low differentiation permissiveness, while those with low mitochondrial membrane potential (JC-1 green) display high differentiation permissiveness. […] ES cells on galactose also consume about 50% more oxygen than those sustained on glucose. ES cell proliferation rates for control and hypoxic cells (both with and without LIF) may be similar. […] STAT3 activity may be similar for normoxic and hypoxic cells.

[2] = system: ES cells; assay: JC-1 fluorescence sensitivity to MDR inhibitors (JC-1 staining and flow cytometry); conditions: CsA 20 μM, verapamil 200 μM, reserpine 10 μM
Experimental: ES cells were maintained in ES cell media consisting of DMEM (no pyruvate, high glucose) (Gibco-BRL), 15% fetal calf serum (FCS) (Hyclone), and supplements (as described in Robertson, E. J. (1987) IRL Press Limited, Oxford, page 71-112). Supplemental Leukemia Inhibitory Factor (LIF) (1:1000 dilution) was prepared by transfecting COS-7 cells (ATCC) with a LIF expression vector, pCAGGS-LIF, then collecting and testing the supernatant 48 hours later (as described in Smith, A. (1991) Journal of Tissue Culture Methods 13:89-94). Irradiated mouse embryonic fibroblasts (MEFs) were derived from d13 embryos for use as feeder cells (as described in Robertson (1987) (supra)). […]
For MDR inhibitor dose response assays, cells were trypsinized for 15 minutes, quenched with ES cell media, triturated to a single cell suspension, and centrifuged at 1000 rpm for 5 minutes. […] Following centrifugation, cells were washed […] with cold HBSS, centrifuged and resuspended in cold PBS at the same concentration, placed on ice, and analyzed within 60 minutes (as described in Cossarizza et al. (1993) Biochem. Biophys. Res. Commun. 197:40-45). […]
Using the cationic fluorescent dye, JC-1, functionally distinct populations of ES cells were identified. […] Generally, less than 5% of the cells maintained a “JC-1 green only” fluorescence profile when treated with any of these inhibitors. […]

[3] = system: ES cells; assay: JC-1 red/green fluorescence (mitochondrial membrane potential) by flow analysis; conditions: galactose-containing culture medium, about four days
Experimental: In order to assess if cells are primarily using oxidative phosphorylation or glycolysis, mitochondrial inner-membrane potential can be assayed by JC-1 fluorescence (1 ug/ml) in ES cells grown in both the presence (undifferentiated) and absence (differentiation) of LIF.
The cells of Example 1 were stained with 1 μg/ml 5,5′,6,6′-tetrachloro-1,1′,3,3′-tetraethyl-benzimidazolylcarbocyanine iodide (JC-1, Molecular Probes, Eugene, Oreg.) and flow cytometry was performed using a FACSCalibur flow cytometer (Becton Dickinson, San Jose, Calif.). Cells were stained as above and sorted using a FACSVantage SE cell sorter (Becton Dickinson).

[4] = system: ES cells; assay: Lactate secretion of ES cells; conditions: after 24 hours; normoxic and hypoxic ES cells about 80 mg/dl
Excerpt: as §1

[5] = system: ES cells; assay: Oxygen consumption of ES cells; conditions: ES cells on galactose
Excerpt: as §1

O=CC[C@@H](O)[C@H](O)[C@H](O)CO [2-dG, 2-deoxy glucose]
reduction of proliferation rate ([1]; 2-deoxy glucose 0.5 mM): ≤ 3 fold

COc1ccc(CCN(C)CCCC(C#N)(c2ccc(OC)c(OC)c2)C(C)C)cc1OC (stereo not drawn) [verapamil]
shift of JC-1 fluorescence on addition of inhibitor [2]: dramatic shift of the majority of cells towards red fluorescence

O=C[C@H](O)[C@@H](O)[C@@H](O)[C@H](O)CO [galactose]
sub-population of ES cells showing JC-1 red fluorescence [3]: slightly increased
lactate secretion [4]: < 10 mg/dL
oxygen consumption, more than cells sustained on glucose [5]: about 50%
increase of doubling time ([1]; galactose-containing culture medium, about four days): about 25%
doubling time ([1]; galactose-containing culture medium, about four days, 16 hours under standard conditions): 20 h

CC[C@H]1/C=C/C=C/C[C@@H](C)[C@H](O)[C@@](C)(O)C(=O)[C@@H](C)[C@H](O)[C@@H](C)C(=O)[C@@H](C)[C@H](O)[C@@H](C)/C=C/C(=O)O[C@@H]2[C@H](C)[C@H](CC1)O[C@]1(CC[C@H](C)[C@H](C[C@@H](C)O)O1)[C@H]2C [oligomycin]
effect on proliferation rates ([1]; oligomycin 3 μM or FCCP+ oligomycin): dramatically reduces proliferation rates

COC(=O)[C@H]1[C@H]2C[C@@H]3c4[nH]c5cc(OC)ccc5c4CCN3C[C@H]2C[C@@H](OC(=O)c2cc(OC)c(OC)c(OC)c2)[C@@H]1OC [reserpine]
shift of JC-1 fluorescence on addition of inhibitor [2]: dramatic shift of the majority of cells towards red fluorescence
